In patent US12169192B2, “Methods of identifying a hydrocarbon fuel” (Afton Chemical Corporation, priority 2020, dated 2024):

Columns and labels:
[1] = Partition of marker compound between water and heptane phases; type: physicochemical; conditions: for Initial Fluorescence Intensity in Water Phase / Fluorescence Intensity in Water Phase After Partition: heptane, excitation 540 nm, emission 590 nm; for Initial Fluorescence Intensity in Water Phase: 10 ppb marker; for Fluorescence Intensity in Water Phase After Partition: not background corrected; for Partition Ratio (Kd): water/heptane, corrected for background
Protocol: (§1) In this Example, the separation/partition of the marker compound between water and fuel phases was measured. The procedure for this Example included: measure fluorescence of 10 grams of water phase with and without marker compound present to determine background fluorescence. Then, 10 grams of hydrocarbon including 10 ppb of marker compound was added to the water and gently agitated for 1 minute. After mixing, the sample was allowed to completely separate into two phases. Thereafter, the fluorescence of the water phase was re-measured. Since the marker concentration is directly proportional to fluorescence intensity (at 10 ppb and within a range of interest), the Partition Ratio can be calculated from the initial and final tracer fluorescence intensities (corrected for any background fluorescence) from the water phase.
(§2) For this Example, Rhodamine B, Rhodamine 101, and Fluorescein marker compounds were used. For Rhodamine 101 and Rhodamine B measurements, excitation wavelength was 540 nm and emission wavelength was 590 nm. For Fluorescein measurements, excitation wavelength was 470 nm and emission wavelength was 515 nm.

[2] = Partition of marker compound between water and gasoline phases; type: physicochemical; conditions: for Initial Fluorescence Intensity in Water Phase / Fluorescence Intensity in Water Phase After Partition: gasoline, excitation 540 nm, emission 590 nm; for Initial Fluorescence Intensity in Water Phase: 10 ppb marker; for Fluorescence Intensity in Water Phase After Partition: not background corrected; for Partition Ratio (Kd): water/gasoline, corrected for background
Protocol: as §1, §2

| SMILES | Initial Fluorescence Intensity in Water Phase [1] [arb units] | Fluorescence Intensity in Water Phase After Partition [1] [arb units] | Partition Ratio (Kd) [1] | Initial Fluorescence Intensity in Water Phase [2] [arb units] | Fluorescence Intensity in Water Phase After Partition [2] [arb units] | Partition Ratio (Kd) [2] |
| --- | --- | --- | --- | --- | --- | --- |
| O=C([O-])c1ccccc1C1=c2cc3c4c(c2Oc2c1cc1c5c2CCCN5CCC1)CCC[N+]=4CCC3 [Rhodamine 101] | 73 | 20 | 0.35 | 73.5 | 12.5 | 0.20 |
| CCN(CC)c1ccc2c(-c3ccccc3C(=O)O)c3ccc(=[N+](CC)CC)cc-3oc2c1.[Cl-] [Rhodamine B] | 75 | 21.5 | 0.38 | 71.5 | 13 | 0.21 |
